Measured values: patent publication US20110173718A1, “HERBICIDE TOLERANT PLANTS” (SYNGENTA CROP PROTECTION, INC., priority 2008, published 2011)

Assays:
weeds [1] = assay: Glasshouse weed control, HST inhibitors alone and with A22, post-emergence; type: in vivo; conditions: 336 h, 14 DAT, single replicate, read-out: % control score, Obs; for pest or weed control at 15.625 g/ha: 15.625 g/ha alone; for pest or weed control at 62.5 g/ha: 62.5 g/ha alone; for pest or weed control at 250 g/ha: 250 g/ha alone
Method: (§1) In a further test, the results of which are depicted in tables 18 and 19, weed seeds are planted out in trays containing 50% peat/50% John Innes no. 3 soil and grown in the glass house at 24-27 C day; 18-21 C night and approximately a 15 h photoperiod. Humidity is ˜65% and light levels at bench level are up to 2 mmol/m^2. Again all spray chemicals are dissolved in 0.2% X77 surfactant and sprayed from a boom on a track sprayer moving at 2 mph with the nozzle set about 2 inches above the plant tops. The spray volume is […]. Sprays are carried out both pre-emergence and post-emergence over small plants at about 7-12 d post-emergence. Plants are assessed at 14 DAT with herbicidal damage scored on a scale from 0 to 100%. The HPPD inhibiting herbicide is compound A22 (4-hydroxy-3-[[2-(2-methoxyethoxy)methyl]-6-(trifluoromethyl)-3-pyridinylicarbonyl]-bicyclo[3.2.1]oct-3-en-2-one) which is sprayed at 2 g/ha both alone and in mixture with various HST herbicides. Results and spray rates are depicted in Tables 18 and 19. Again the Colby formula has been used to calculate synergy scores observed following treatment with the mixture based on the results obtained with the single components alone. Positive synergy is observed between the HPPD herbicide and a wide variety of HST inhibitor herbicides applied both pre and postemergence across a variety of weeds.

weeds [2] = assay: Glasshouse weed control, HST inhibitors alone and with A22, pre-emergence; type: in vivo; conditions: 336 h, 14 DAT; for pest or weed control at 15.625 g/ha: HST inhibitor rate 15.625 g/ha; for pest or weed control at 62.5 g/ha: HST inhibitor rate 62.5 g/ha; for pest or weed control at 250 g/ha: HST inhibitor rate 250 g/ha
Method: as §1

Arabidopsis HST = molecular target: T1, Arabidopsis HST (Arabidopsis thaliana, UniProt Q1ACB3); assay: HST total extraction (non TLC) assay, recombinant Arabidopsis HST from insect cells; type: biochemical
T1 construct: GST (factor Xa cleavage site) (N); made in house; host or cells: Sf9 insect cells (baculovirus, pAcG3X), membrane fraction
T1 sequence (Q1ACB3 70-386): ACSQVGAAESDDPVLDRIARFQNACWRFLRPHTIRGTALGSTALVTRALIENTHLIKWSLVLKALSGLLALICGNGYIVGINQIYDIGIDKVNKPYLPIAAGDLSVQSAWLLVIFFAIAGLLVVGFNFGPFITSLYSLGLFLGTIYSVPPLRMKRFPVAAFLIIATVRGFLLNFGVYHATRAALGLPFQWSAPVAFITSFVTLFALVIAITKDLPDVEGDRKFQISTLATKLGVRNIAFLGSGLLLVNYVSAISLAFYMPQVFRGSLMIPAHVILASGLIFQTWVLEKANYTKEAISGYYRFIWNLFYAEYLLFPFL

[3] = BRAPL, read-out: BRAPL Obs, % control score
[4] = PANMI, read-out: PANMI Obs, % control score
[5] = SIDSP, read-out: SIDSP Obs, % control score
[6] = Digitaria sanguinalis, DIGSA, read-out: DIGSA Obs, % control score
[7] = Echinochloa crus-galli, ECHCG, read-out: ECHCG Obs, % control score
[8] = Setaria faberi, SETFA, read-out: SETFA Obs, % control score

Cn1c(=O)c(-c2c(Cl)cccc2C(F)(F)F)c(O)c2nccnc21 [Compound 2.16]
pest or weed control at 15.625 g/ha (weeds [1]; BRAPL): 10% | pest or weed control at 62.5 g/ha (weeds [1]; BRAPL): 30% | pest or weed control at 250 g/ha (weeds [1]; BRAPL): 70% | pest or weed control at 15.625 g/ha (weeds [1]; PANMI): 5% | pest or weed control at 62.5 g/ha (weeds [1]; PANMI): 40% | pest or weed control at 250 g/ha (weeds [1]; PANMI): 70% | pest or weed control at 15.625 g/ha (weeds [1]; SIDSP): 5% | pest or weed control at 62.5 g/ha (weeds [1]; SIDSP): 40% | pest or weed control at 250 g/ha (weeds [1]; SIDSP): 50% | pest or weed control at 15.625 g/ha (weeds [1]; Digitaria sanguinalis, DIGSA): 0% | pest or weed control at 62.5 g/ha (weeds [1]; Digitaria sanguinalis, DIGSA): 2% | pest or weed control at 250 g/ha (weeds [1]; Digitaria sanguinalis, DIGSA): 40% | pest or weed control at 15.625 g/ha (weeds [1]; Echinochloa crus-galli, ECHCG): 2% | pest or weed control at 62.5 g/ha (weeds [1]; Echinochloa crus-galli, ECHCG): 15% | pest or weed control at 250 g/ha (weeds [1]; Echinochloa crus-galli, ECHCG): 50% | pest or weed control at 15.625 g/ha (weeds [1]; Setaria faberi, SETFA): 1% | pest or weed control at 62.5 g/ha (weeds [1]; Setaria faberi, SETFA): 30% | pest or weed control at 250 g/ha (weeds [1]; Setaria faberi, SETFA): 65% | pest or weed control at 15.625 g/ha (weeds [2]; [3]): 0% | pest or weed control at 62.5 g/ha (weeds [2]; [3]): 5% | pest or weed control at 250 g/ha (weeds [2]; [3]): 50% | pest or weed control at 15.625 g/ha (weeds [2]; [4]): 0% | pest or weed control at 62.5 g/ha (weeds [2]; [4]): 0% | pest or weed control at 250 g/ha (weeds [2]; [4]): 40% | pest or weed control at 15.625 g/ha (weeds [2]; [5]): 0% | pest or weed control at 62.5 g/ha (weeds [2]; [5]): 0% | pest or weed control at 250 g/ha (weeds [2]; [5]): 0% | pest or weed control at 15.625 g/ha (weeds [2]; [6]): 0% | pest or weed control at 62.5 g/ha (weeds [2]; [6]): 0% | pest or weed control at 250 g/ha (weeds [2]; [6]): 0% | pest or weed control at 15.625 g/ha (weeds [2]; [7]): 0% | pest or weed control at 62.5 g/ha (weeds [2]; [7]): 15% | pest or weed control at 250 g/ha (weeds [2]; [7]): 60% | pest or weed control at 15.625 g/ha (weeds [2]; [8]): 0% | pest or weed control at 62.5 g/ha (weeds [2]; [8]): 10% | pest or weed control at 250 g/ha (weeds [2]; [8]): 45% | Estimated IC50 (ppm) (Arabidopsis HST): 78 ppm

O=c1c(-c2cc(Cl)ccc2C(F)(F)F)c(O)c2nccnc2n1CC(F)F [Compound 2.19]
pest or weed control at 15.625 g/ha (weeds [1]; BRAPL): 20% | pest or weed control at 62.5 g/ha (weeds [1]; BRAPL): 70% | pest or weed control at 250 g/ha (weeds [1]; BRAPL): 80% | pest or weed control at 15.625 g/ha (weeds [1]; PANMI): 40% | pest or weed control at 62.5 g/ha (weeds [1]; PANMI): 70% | pest or weed control at 250 g/ha (weeds [1]; PANMI): 85% | pest or weed control at 15.625 g/ha (weeds [1]; SIDSP): 15% | pest or weed control at 62.5 g/ha (weeds [1]; SIDSP): 30% | pest or weed control at 250 g/ha (weeds [1]; SIDSP): 50% | pest or weed control at 15.625 g/ha (weeds [1]; Digitaria sanguinalis, DIGSA): 30% | pest or weed control at 62.5 g/ha (weeds [1]; Digitaria sanguinalis, DIGSA): 50% | pest or weed control at 250 g/ha (weeds [1]; Digitaria sanguinalis, DIGSA): 70% | pest or weed control at 15.625 g/ha (weeds [1]; Echinochloa crus-galli, ECHCG): 30% | pest or weed control at 62.5 g/ha (weeds [1]; Echinochloa crus-galli, ECHCG): 45% | pest or weed control at 250 g/ha (weeds [1]; Echinochloa crus-galli, ECHCG): 75% | pest or weed control at 15.625 g/ha (weeds [1]; Setaria faberi, SETFA): 30% | pest or weed control at 62.5 g/ha (weeds [1]; Setaria faberi, SETFA): 60% | pest or weed control at 250 g/ha (weeds [1]; Setaria faberi, SETFA): 80% | pest or weed control at 15.625 g/ha (weeds [2]; [3]): 0% | pest or weed control at 62.5 g/ha (weeds [2]; [3]): 10% | pest or weed control at 250 g/ha (weeds [2]; [3]): 40% | pest or weed control at 15.625 g/ha (weeds [2]; [4]): 0% | pest or weed control at 62.5 g/ha (weeds [2]; [4]): 0% | pest or weed control at 250 g/ha (weeds [2]; [4]): 60% | pest or weed control at 15.625 g/ha (weeds [2]; [5]): 0% | pest or weed control at 62.5 g/ha (weeds [2]; [5]): 2% | pest or weed control at 250 g/ha (weeds [2]; [5]): 10% | pest or weed control at 15.625 g/ha (weeds [2]; [6]): 0% | pest or weed control at 62.5 g/ha (weeds [2]; [6]): 0% | pest or weed control at 250 g/ha (weeds [2]; [6]): 20% | pest or weed control at 15.625 g/ha (weeds [2]; [7]): 0% | pest or weed control at 62.5 g/ha (weeds [2]; [7]): 50% | pest or weed control at 250 g/ha (weeds [2]; [7]): 90% | pest or weed control at 15.625 g/ha (weeds [2]; [8]): 0% | pest or weed control at 62.5 g/ha (weeds [2]; [8]): 5% | pest or weed control at 250 g/ha (weeds [2]; [8]): 60% | Estimated IC50 (ppm) (Arabidopsis HST): 6 ppm
